In US20210045385A1, “PYRIDAZINONE-SUBSTITUTED KETOXIMES AS HERBICIDES” (FMC Corporation, priority 2018, published 2021):

Assays:
Format in all cases: in vivo
[1] = test system: rice (Oryza sativa); experiment: Test B flooded paddy test, visual plant response rating; conditions: 250 g ai/ha, Flood, applied to paddy water, 2-leaf stage, evaluated after 13 to 15 days
Summary of the method: (§1)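 Flooded-pot treatment: water 3 cm over the soil, chemical delivered into that water, depth unchanged for the duration. Assessed by eye versus controls following 13–15 greenhouse days; plants were at 2 leaves when dosed.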

[2] = test system: ducksalad (Heteranhera limosa); experiment: as above; conditions: 250 g ai/ha, Flood, applied to paddy water, 2-leaf stage, evaluated after 13 to 15 days
Summary of the method: as §1

[3] = test system: sedge, umbrella (small-flower umbrella sedge, Cyperus difformis); experiment: as above; conditions: 250 g ai/ha, Flood, applied to paddy water, 2-leaf stage, evaluated after 13 to 15 days
Summary of the method: as §1

[4] = test system: barnyardgrass (Echinochloa crus-galli); experiment: as above; conditions: 250 g ai/ha, Flood, applied to paddy water, 2-leaf stage, evaluated after 13 to 15 days
Summary of the method: as §1

[5] = test system: foxtail, giant (giant foxtail, Setaria faberii); experiment: Test A preemergence, visual plant response rating; conditions: for Foxtail, Giant plant response rating: preemergence, 0 to 100 scale, 0 no effect, 100 complete control; for Foxtail, Giant plant response rating (0 to 100 scale): approx. 10 days
Summary of the method: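 Greenhouse pot test in loam–sand soil mix: compound in a surfactant-containing non-phytotoxic solvent applied preemergence (directed soil spray) or postemergence (one- to two-leaf plants, 2–10 cm). Injury scored visually after ~10 days, 0–100.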

[6] = test system: barnyardgrass (Echinochloa crus-galli); experiment: Test A preemergence, visual plant response rating; conditions: for Barnyardgrass plant response rating: preemergence, 0 to 100 scale, 0 no effect, 100 complete control; for Barnyardgrass plant response rating (0 to 100 scale): approx. 10 days
Summary of the method: (§2)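 Ratings use a 0–100 visual scale (100 = complete control) against untreated controls, scored about 10 days after greenhouse treatment. Test chemicals were formulated in surfactant-containing non-phytotoxic solvent and applied either as soil spray after planting (preemergence) or onto one- to two-leaf, 2–10 cm plants (postemergence).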

[7] = test system: ragweed (common ragweed, Ambrosia elatior); experiment: Test A preemergence, visual plant response rating; conditions: for Ragweed plant response rating: preemergence, 0 to 100 scale, 0 no effect, 100 complete control; for Ragweed plant response rating (0 to 100 scale): approx. 10 days
Summary of the method: as §2

[8] = test system: Italian ryegrass (Lolium multiflorum); experiment: Test A preemergence, visual plant response rating; conditions: for Ryegrass, Italian plant response rating: preemergence, 0 to 100 scale, 0 no effect, 100 complete control; for Ryegrass, Italian plant response rating (0 to 100 scale): approx. 10 days
Summary of the method: as §2

[9] = test system: pigweed (Amaranthus retroflexus); experiment: Test A preemergence, visual plant response rating; conditions: for Pigweed plant response rating: preemergence, 0 to 100 scale, 0 no effect, 100 complete control; for Pigweed plant response rating (0 to 100 scale): approx. 10 days
Summary of the method: as §2

[10] = test system: kochia (Kochia scoparia); experiment: Test A preemergence, visual plant response rating; conditions: for Kochia plant response rating: preemergence, 0 to 100 scale, 0 no effect, 100 complete control; for Kochia plant response rating (0 to 100 scale): approx. 10 days
Summary of the method: as §2

[11] = test system: foxtail, giant (giant foxtail, Setaria faberii); experiment: Test A postemergence, visual plant response rating; conditions: for Foxtail, Giant plant response rating: Postemergence, 125 g ai/ha, 0 to 100 scale (0 no effect, 100 complete control)
Description: (§3) Seeds of plant species selected from barnyardgrass (Echinochloa crus-galli), kochia (Kochia scoparia), ragweed (common ragweed, Ambrosia elatior), Italian ryegrass (Lolium multiflorum), foxtail, giant (giant foxtail, Setaria faberii), foxtail, green (green foxtail, Setaria viridis), and pigweed (Amaranthus retroflexus) were planted into a blend of loam soil and sand and treated preemergence with a directed soil spray using test chemicals formulated in a non-phytotoxic solvent mixture which included a surfactant.
(§4) At the same time, plants selected from these weed species and also wheat (Triticum aestivum), corn (Zea mays), blackgrass (Alopecurus myosuroides), and galium (catchweed bedstraw, Galium aparine) were planted in pots containing the same blend of loam soil and sand and treated with postemergence applications of test chemicals formulated in the same manner. Plants ranged in height from 2 to 10 cm and were in the one- to two-leaf stage for the postemergence treatment. Treated plants and untreated controls were maintained in a greenhouse for approximately 10 days, after which time all treated plants were compared to untreated controls and visually evaluated for injury. Plant response ratings, summarized in Table A, are based on a 0 to 100 scale where 0 is no effect and 100 is complete control. A dash (-) response means no test result.

[12] = test system: barnyardgrass (Echinochloa crus-galli); experiment: Test A postemergence, visual plant response rating; conditions: for Barnyardgrass plant response rating: Postemergence, 125 g ai/ha, 0 to 100 scale (0 no effect, 100 complete control)
Description: as §3, §4

[13] = test system: ragweed (common ragweed, Ambrosia elatior); experiment: Test A postemergence, visual plant response rating; conditions: for Ragweed plant response rating: Postemergence, 125 g ai/ha, 0 to 100 scale (0 no effect, 100 complete control)
Description: as §3, §4

[14] = test system: corn (Zea mays); experiment: Test A postemergence, visual plant response rating; conditions: for Corn plant response rating: Postemergence, 125 g ai/ha, 0 to 100 scale (0 no effect, 100 complete control)
Description: as §3, §4

[15] = test system: Italian ryegrass (Lolium multiflorum); experiment: Test A postemergence, visual plant response rating; conditions: for Ryegrass, Italian plant response rating: Postemergence, 125 g ai/ha, 0 to 100 scale (0 no effect, 100 complete control)
Description: as §3, §4

[16] = test system: wheat (Triticum aestivum); experiment: Test A postemergence, visual plant response rating; conditions: for Wheat plant response rating: Postemergence, 125 g ai/ha, 0 to 100 scale (0 no effect, 100 complete control)
Description: as §3, §4

[17] = test system: pigweed (Amaranthus retroflexus); experiment: Test A postemergence, visual plant response rating; conditions: for Pigweed plant response rating: Postemergence, 125 g ai/ha, 0 to 100 scale (0 no effect, 100 complete control)
Description: as §3, §4

[18] = test system: galium (catchweed bedstraw, Galium aparine); experiment: Test A postemergence, visual plant response rating; conditions: for Galium plant response rating: Postemergence, 125 g ai/ha, 0 to 100 scale (0 no effect, 100 complete control)
Description: as §3, §4

[19] = test system: kochia (Kochia scoparia); experiment: Test A postemergence, visual plant response rating; conditions: for Kochia plant response rating: Postemergence, 125 g ai/ha, 0 to 100 scale (0 no effect, 100 complete control)
Description: as §3, §4

[20] = test system: blackgrass (Alopecurus myosuroides); experiment: Test A postemergence, visual plant response rating; conditions: for Blackgrass plant response rating: Postemergence, 125 g ai/ha, 0 to 100 scale (0 no effect, 100 complete control)
Description: as §3, §4

[21] = 500 g ai/ha, postemergence, 0 is no effect, 100 is complete control
[22] = 1000 g ai/ha Postemergence, approx. 10 days

Structure (SMILES)	Plant response rating, Rice (0 to 100 scale, 0 is no effect, 100 is complete control) [1]	Plant response rating, Ducksalad (0 to 100 scale, 0 is no effect, 100 is complete control) [2]	Plant response rating, Sedge, Umbrella (0 to 100 scale, 0 is no effect, 100 is complete control) [3]	Plant response rating, Barnyardgrass (0 to 100 scale, 0 is no effect, 100 is complete control) [4]	Foxtail, Giant plant response rating (0 to 100 scale) ([5]; 500 g ai/ha Preemergence)	Barnyardgrass plant response rating (0 to 100 scale) ([6]; 500 g ai/ha Preemergence)	Ragweed plant response rating (0 to 100 scale) ([7]; 500 g ai/ha Preemergence)	Ryegrass, Italian plant response rating (0 to 100 scale) ([8]; 500 g ai/ha Preemergence)	Pigweed plant response rating (0 to 100 scale) ([9]; 500 g ai/ha Preemergence)	Kochia plant response rating (0 to 100 scale) ([10]; 500 g ai/ha Preemergence)	Foxtail, Giant plant response rating (0 to 100 scale) [11, 21]	Foxtail, Giant plant response rating [11]	Barnyardgrass plant response rating (0 to 100 scale) [12, 21]	Barnyardgrass plant response rating [12]	Ragweed plant response rating (0 to 100 scale) [13, 21]	Ragweed plant response rating [13]	Corn plant response rating (0 to 100 scale) [14, 21]	Corn plant response rating [14]	Ryegrass, Italian plant response rating (0 to 100 scale) [15, 21]	Ryegrass, Italian plant response rating [15]	also measured
CON=C(c1c(O)c(C)nn(C)c1=O)c1csc2ccccc12 (single isomer, unassigned) [Compound 46]	0	0	0	0	0	0	50	0	10	30	0	0	0	0	70	40	0	0	10	10	Foxtail, Giant plant response rating ([5]; 125 g ai/ha): 0; Barnyardgrass plant response rating ([6]; 125 g ai/ha): 0; Ragweed plant response rating ([7]; 125 g ai/ha): 20; Ryegrass, Italian plant response rating ([8]; 125 g ai/ha): 0; Pigweed plant response rating ([9]; 125 g ai/ha): 0; Kochia plant response rating ([10]; 125 g ai/ha): 0; Wheat plant response rating (0 to 100 scale) [16, 21]: 0; Wheat plant response rating [16]: 0; Pigweed plant response rating (0 to 100 scale) [17, 21]: 20; Pigweed plant response rating [17]: 10; Galium plant response rating (0 to 100 scale) [18, 21]: 60; Galium plant response rating [18]: 30; Kochia plant response rating (0 to 100 scale) [19, 21]: 0; Kochia plant response rating [19]: 0; Blackgrass plant response rating (0 to 100 scale) [20, 21]: 0; Blackgrass plant response rating [20]: 0
CON=C(c1c(O)c(C)nn(C)c1=O)c1cccc2ccsc12 (single isomer, unassigned) [Compound 47]	0	0	0	0	90	50	100	70	80	90	70	30	20	30	90	80	20	0	70	0	Foxtail, Giant plant response rating ([5]; 125 g ai/ha): 20; Barnyardgrass plant response rating ([6]; 125 g ai/ha): 0; Ragweed plant response rating ([7]; 125 g ai/ha): 100; Ryegrass, Italian plant response rating ([8]; 125 g ai/ha): 10; Pigweed plant response rating ([9]; 125 g ai/ha): 20; Kochia plant response rating ([10]; 125 g ai/ha): 0; Wheat plant response rating (0 to 100 scale) [16, 21]: 0; Wheat plant response rating [16]: 0; Pigweed plant response rating (0 to 100 scale) [17, 21]: 90; Pigweed plant response rating [17]: 60; Galium plant response rating (0 to 100 scale) [18, 21]: 100; Galium plant response rating [18]: 70; Kochia plant response rating (0 to 100 scale) [19, 21]: 30; Kochia plant response rating [19]: 10; Blackgrass plant response rating (0 to 100 scale) [20, 21]: 30; Blackgrass plant response rating [20]: 20
Cc1cccc(/C(=N/OC(C)C)c2c(O)c(C)nn(C)c2=O)c1 [Compound 18]	0	0	0	0																	Foxtail, Giant plant response rating ([5]; 1000 g ai/ha): 20; Barnyardgrass plant response rating ([6]; 1000 g ai/ha): 30; Ragweed plant response rating ([7]; 1000 g ai/ha): 80; Ryegrass, Italian plant response rating ([8]; 1000 g ai/ha): 60; Pigweed plant response rating ([9]; 1000 g ai/ha): 100; Kochia plant response rating ([10]; 1000 g ai/ha): 50; Foxtail, Giant plant response rating (0 to 100 scale) [11, 22]: 40; Barnyardgrass plant response rating (0 to 100 scale) [12, 22]: 10; Ragweed plant response rating (0 to 100 scale) [13, 22]: 100; Corn plant response rating (0 to 100 scale) [14, 22]: 0; Ryegrass, Italian plant response rating (0 to 100 scale) [15, 22]: 60; Wheat plant response rating (0 to 100 scale) [16, 22]: 20; Pigweed plant response rating (0 to 100 scale) [17, 22]: 90; Galium plant response rating (0 to 100 scale) [18, 22]: 90; Kochia plant response rating (0 to 100 scale) [19, 22]: 30; Blackgrass plant response rating (0 to 100 scale) [20, 22]: 10
CO/N=C(/c1cccc(F)c1)c1c(O)c(C)nn(C)c1=O [Compound 32]	0	0	0	0	0	0	40	50	50	10	20	10	20	10	80	50	0	0	60	40	Foxtail, Giant plant response rating (0 to 100 scale) ([5]; 125 g ai/ha Preemergence): 0; Barnyardgrass plant response rating (0 to 100 scale) ([6]; 125 g ai/ha Preemergence): 0; Ragweed plant response rating (0 to 100 scale) ([7]; 125 g ai/ha Preemergence): 20; Ryegrass, Italian plant response rating (0 to 100 scale) ([8]; 125 g ai/ha Preemergence): 20; Pigweed plant response rating (0 to 100 scale) ([9]; 125 g ai/ha Preemergence): 0; Kochia plant response rating (0 to 100 scale) ([10]; 125 g ai/ha Preemergence): 0; Wheat plant response rating (0 to 100 scale) [16, 21]: 10; Wheat plant response rating [16]: 0; Pigweed plant response rating (0 to 100 scale) [17, 21]: 40; Pigweed plant response rating [17]: 40; Galium plant response rating (0 to 100 scale) [18, 21]: 80; Galium plant response rating [18]: 70; Kochia plant response rating (0 to 100 scale) [19, 21]: 70; Kochia plant response rating [19]: 20; Blackgrass plant response rating (0 to 100 scale) [20, 21]: 20; Blackgrass plant response rating [20]: 0
